The subject of one data set is K562/P-gp leukemia. Kind of data set: In vivo efficacy in reversing DOX resistance in human leukemia K562/P-gp model. Details: species or system NOD/SCID mice. Here is the method: Irradiated BDF1 mice were i.p. inoculated with P388ADR cells, which caused mouse leukemia. Irradiated NOD/SCID mice were i.v. inoculated with K562/P-gp cells, which caused human leukemia. The mice were randomized and treated with (1) control treatment (no treatment), (2) DOX alone, and (3) EC31 + DOX. Treatments were given as indicated by the arrows. The number of mice deaths in each treatment group was recorded every day. (A) The percent survival of mice infected with P388ADR. (B) The percent survival of mice infected with K562/P-gp. The mice median survival days and the increased lifespan (ILS) were analyzed with Log-rank (Mantel–COX) test in Prism 5.0. Student’s paired t test was conducted as indicated. ** represents p < 0.01, and *** represents p < 0.001. N.S. = not significant.
The mice were randomly distributed into 3 groups: (1) control group (no treatment), (2) DOX (0.9 mg/kg i.v.) alone, and (3) cotreatment with EC31 (30 mg/kg i.p.) being injected 1 h prior to DOX (0.9 mg/kg i.v.) administration. EC31 and DOX were injected on days 7, 11, 19, 23, and 27. Before each treatment, 0.2 mg/mL of DOX was freshly prepared using PBS. Mice survival and body weight were monitored during the study period.

Data set [1] relates to P-gp. Details: method as in PMID 25985195, PMID 34597896. As to conditions: cited from earlier work.
Data set [2] concerns P-gp. Kind of data set: DOX efflux in P388ADR cells. In kind it is cell-based, mouse. The conditions noted are these: 1 µM modulator; after 180 min of efflux; P388ADR preloaded with 20 µM DOX. As for the experimental part: Figure 2 Effect of methylated catechin derivatives on intracellular DOX accumulation and DOX efflux in the P-gp-overexpressing cancer cells. […] Then, the cells were washed, and the intracellular DOX level was measured using flow cytometer. (A) LCC6MDR, (B) P388ADR, and (C) K562/P-gp. […] (D) In the efflux study, P388ADR cells were firstly incubated with 20 µM DOX for 45 min. […] At 60, 120, and 180 min, the cells were harvested, and the intracellular DOX level was measured. At 180 min, ** represents p < 0.01, and *** represents p < 0.001, both being relative to P388ADR incubated with DMSO only. […] N = 3 independent experiments. DMSO was used as a solvent control, and the highest amount used was 0.5%.
We investigated if methylated catechin derivatives could inhibit P-gp-mediated drug efflux in P-gp-overexpressing cells. […] Without a modulator, intracellularly, the DOX level was maintained at 80% and 11% after 180 min for P388 and P388ADR cells, respectively (Figure 2D). […] After 180 min of efflux, the intracellular DOX level could be maintained at 61% (p < 0.001), 59% (p < 0.01), 44 % (p < 0.001), and 37%, respectively (Figure 2D).

In a further data set the test system is LCC6MDR xenograft. Description: In vivo efficacy in reversing PTX resistance in LCC6MDR tumor xenograft model. As to conditions: for Doubling time: q2d x 14; for reduction in tumor volume compared to PTX alone / reduction in tumor weight compared to PTX alone: day 30. As for the experimental part:
(A) In vivo toxicity study of EC31 alone and of its combination with PTX was conducted. BALB/c mice were randomized into five groups with five mice in each group. Body weight of BALB/c mice during treatments was measured every two days. The treatment groups included (1) solvent control (5% NMP + 5% Cremophor EL + 90% PBS to dissolve EC31 and 5% Ethanol + 5% Cremophor EL + 90% PBS to dissolve PTX), (2) PTX (12 mg/kg i.v.), (3) EC31 (30 mg/kg i.p.), (4) EC31 (30 mg/kg i.p.) + PTX (12 mg/kg i.v.), or (5) EC31 (60 mg/kg i.p.) + PTX (12 mg/kg i.v.). The administration was performed every other day 12 times (q2d x 12). The loss of body weight or appetite and treatment-related mortality were monitored and defined as toxicity. (B) BALB/c nude mice were subcutaneously xenografted with LCC6MDR. When the tumor reached 150–300 mm^3, the mice were randomized and administered once with (1) EC31 alone, (2) PTX alone, or (3) EC31 + PTX. […] The tumors were taken out, and their weights were measured. Intratumor concentration of EC31 or PTX was measured using UPLC-MS/MS, and the actual concentration of PTX or EC31 was normalized to the tumor weight. […] (C) BALB/c nude mice were subcutaneously xenografted with LCC6MDR. The treatment groups included (1) solvent, (2) PTX (12 mg/kg i.v.) alone, (3) cotreatment with EC31 (30 mg/kg i.p.) being injected 1 h prior to PTX (12 mg/kg i.v.) and with EC31 (30 mg/kg i.p.) then being given in a second injection 5 h post-PTX injection, and (4) cotreatment with EC31 (60 mg/kg i.p.) being injected 1 h prior to PTX injection (12 mg/kg i.v.). Tumor volume and body weight were monitored throughout the treatment period. There were 8 mice in each treatment group. Treatments were given as indicated by the arrows. […] At the end of LCC6MDR xenograft efficacy study (day 30), all tumors were dissected. The tumor volume, tumor weight, and doubling time were measured. The number of animal deaths was recorded during the treatment period. Statistical analysis on tumor volumes of different treatment groups was done by performing two-way ANOVA with Dunnett’s multiple comparison test after treatment period. * represents p < 0.05, ** represents p < 0.01, and *** represents p < 0.001. […] No measure is printed with it.
Here, we tested whether EC31 could reverse P-gp-mediated PTX resistance in the LCC6MDR xenograft model (Figure 5C). The treatment was given every other day 14 times (q2d x 14) from day 0 to day 26.
The LCC6MDR tumor xenograft model was studied as it was previously. About 1 × 10^6 cells of LCC6MDR cells were inoculated subcutaneously (s.c.) into the rear flank of a female BALB/c nude mouse (4–6 weeks old). When a tumor of 200–250 mm^3 was formed, it was removed and cut into cubes of 1 mm^3 and was xenografted s.c. into the rear flank of another female BALB/c nude mouse. Treatments started when the tumor reached 100 mm^3. […] Tumor growth was measured with an electronic caliper on the injection day, and the tumor volume was calculated as reported previously.

Another data set has as its system fibroblast cells. Details: method as in PMID 25985195, PMID 34597896. As to conditions: cited from earlier work.
Setting [3] is: EC31 30 mg/kg i.p. + DOX 0.9 mg/kg i.v.
Where [4] appears, read: group 3: EC31 30 mg/kg + PTX + EC31 30 mg/kg.

pIC50: −log10 of the molar value.

As a reminder, the pIC50 is −log10 of the IC50, conventionally taken in molar units. Turning to `COc1cc(OC)c2c(c1)O[C@H](c1ccc(OC)c(OC)c1)[C@H](OC(=O)c1ccc(F)c(NC(=O)c3cc(OC)c(OC)c(OC)c3)c1)C2` [EC31], the median survival time in the data set with K562/P-gp leukemia (setting [3]) stood at 37.0 days. In addition, the “prolongation of animal survival compared to DOX alone” value in the data set on K562/P-gp leukemia (setting [3]) is reported as 5 days. The “ILS% (increase in lifespan)” value with K562/P-gp leukemia (EC31 30 mg/kg i.p. + DOX 0.9 mg/kg i.v. compared to DOX alone) worked out at 15.6%. Also, the “effect on plasma membrane level of P-gp” value in the data set with P-gp [1] was “did not affect”. Besides, in the data set on P-gp [2], the “Relative intracellular DOX level (%)” value was 44%. Moreover, the entries for the “Doubling time” value with LCC6MDR xenograft (EC31 30 mg/kg i.p. (−1 h) + PTX 12 mg/kg i.v. + EC31 30 mg/kg i.p. (+5 h)) and in the data set with LCC6MDR xenograft (EC31 60 mg/kg i.p. (−1 h) + PTX 12 mg/kg i.v.) were 15.0 days and 12.4 days, respectively. In addition, the “reduction in tumor volume compared to PTX alone” value in the data set with LCC6MDR xenograft (setting [4]) amounted to 1.6 fold; with LCC6MDR xenograft (group 4: EC31 60 mg/kg + PTX) it was 1.4 fold. Moreover, the “reduction in tumor weight compared to PTX alone” value was 1.5 fold with LCC6MDR xenograft (setting [4]) and 1.4 fold with LCC6MDR xenograft (group 4: EC31 60 mg/kg + PTX). For the same compound, in the data set with fibroblast cells, the pIC50 is below 4.00.

The record behind these values is PMC10002220, “In Vivo Reversal of P-Glycoprotein-Mediated Drug Resistance in a Breast Cancer Xenograft and in Leukemia Models Using a Novel, Potent, and Nontoxic Epicatechin EC31” (International Journal of Molecular Sciences, 2023).
